# In PubChem BioAssay (NCI):
#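 Interpolation was linear, between the two tested concentrations surrounding the appropriate level; five concentrations were tested over 48 hours in 96-well plates. GI50: concentration for 50% inhibition of growth. TGI marks complete inhibition of growth.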
# Legend:
# Assay in all cases: NCI tumour cell line growth inhibition, 48 h
# MDA-MB-231 breast = test system: MDA-MB-231 breast
# OVCAR-5 ovarian = test system: OVCAR-5 ovarian
# NCI-H460 lung = test system: NCI-H460 lung
# K-562 leukemia = test system: K-562 leukemia
# RPMI-8226 leukemia = test system: RPMI-8226 leukemia
# SK-MEL-5 melanoma = test system: SK-MEL-5 melanoma
# HL-60(TB) leukemia = test system: HL-60(TB) leukemia
# DU-145 prostate = test system: DU-145 prostate
# MALME-3M melanoma = test system: MALME-3M melanoma
# UACC-62 melanoma = test system: UACC-62 melanoma
# HS 578T breast = test system: HS 578T breast
# HOP-92 NSCLC = test system: HOP-92 NSCLC
# SK-MEL-2 melanoma = test system: SK-MEL-2 melanoma
# CAKI-1 renal = test system: CAKI-1 renal
# OVCAR-4 ovarian = test system: OVCAR-4 ovarian
# SR leukemia = test system: SR leukemia
# NCI-H226 lung = test system: NCI-H226 lung
# EKVX NSCLC = test system: EKVX NSCLC
# A549 NSCLC = test system: A549 NSCLC
# PC-3 prostate = test system: PC-3 prostate
# NCI/ADR-RES ovarian = test system: NCI/ADR-RES ovarian
# M14 melanoma = test system: M14 melanoma
# NCI-H522 lung = test system: NCI-H522 lung
# UACC-257 melanoma = test system: UACC-257 melanoma
# UO-31 renal = test system: UO-31 renal
# SW-620 colon = test system: SW-620 colon
# SF-539 CNS = test system: SF-539 CNS
# OVCAR-3 ovarian = test system: OVCAR-3 ovarian
# BT-549 breast = test system: BT-549 breast
# SF-268 CNS = test system: SF-268 CNS
# A498 renal = test system: A498 renal
# SNB-19 CNS = test system: SNB-19 CNS
# T-47D breast = test system: T-47D breast
# IGROV1 ovarian = test system: IGROV1 ovarian
# U251 CNS = test system: U251 CNS
# NCI-H23 lung = test system: NCI-H23 lung
# HT29 colon = test system: HT29 colon
# COLO 205 colon = test system: COLO 205 colon
# LOX IMVI melanoma = test system: LOX IMVI melanoma
# HCT-116 colon = test system: HCT-116 colon
# CCRF-CEM leukemia = test system: CCRF-CEM leukemia
# SK-MEL-28 melanoma = test system: SK-MEL-28 melanoma
# MCF7 breast = test system: MCF7 breast
# MOLT-4 leukemia = test system: MOLT-4 leukemia
# HOP-62 NSCLC = test system: HOP-62 NSCLC
# TK-10 renal = test system: TK-10 renal
# SK-OV-3 ovarian = test system: SK-OV-3 ovarian
# HCT-15 colon = test system: HCT-15 colon
# SN12C renal = test system: SN12C renal
# KM12 colon = test system: KM12 colon
# SF-295 CNS = test system: SF-295 CNS
# MDA-MB-435 = test system: MDA-MB-435
# OVCAR-8 ovarian = test system: OVCAR-8 ovarian
# 786-0 renal = test system: 786-0 renal
# ACHN renal = test system: ACHN renal
# HCC-2998 colon = test system: HCC-2998 colon
# SNB-75 CNS = test system: SNB-75 CNS
# RXF 393 renal = test system: RXF 393 renal
compound,measurement,setting,value
Cc1cc(C(=O)Nc2nc3cccc(Cl)c3n2[C@@H]2CCCCN(C(=O)/C=C/CN(C)C)C2)ccn1,GI50,MDA-MB-231 breast,13 µM
same,TGI,MDA-MB-231 breast,28.1 µM
same,GI50,OVCAR-5 ovarian,17.7 µM
same,TGI,OVCAR-5 ovarian,47.6 µM
same,GI50,NCI-H460 lung,8.7 µM
same,TGI,NCI-H460 lung,23.1 µM
same,GI50,K-562 leukemia,9.58 µM
same,TGI,K-562 leukemia,61.5 µM
same,GI50,RPMI-8226 leukemia,9.25 µM
same,TGI,RPMI-8226 leukemia,32 µM
same,GI50,SK-MEL-5 melanoma,8.97 µM
same,TGI,SK-MEL-5 melanoma,22.8 µM
same,GI50,HL-60(TB) leukemia,17 µM
same,TGI,HL-60(TB) leukemia,38.3 µM
same,GI50,DU-145 prostate,6.19 µM
same,TGI,DU-145 prostate,45.2 µM
same,GI50,MALME-3M melanoma,18.2 µM
same,TGI,MALME-3M melanoma,34 µM
same,GI50,UACC-62 melanoma,15.3 µM
same,TGI,UACC-62 melanoma,31.5 µM
same,GI50,HS 578T breast,9.11 µM
same,TGI,HS 578T breast,37.3 µM
same,GI50,HOP-92 NSCLC,6.94 µM
same,TGI,HOP-92 NSCLC,32.2 µM
same,GI50,SK-MEL-2 melanoma,17.5 µM
same,TGI,SK-MEL-2 melanoma,34.2 µM
same,GI50,CAKI-1 renal,0.58 µM
same,TGI,CAKI-1 renal,17.2 µM
same,GI50,OVCAR-4 ovarian,7.18 µM
same,TGI,OVCAR-4 ovarian,26.4 µM
same,GI50,SR leukemia,11.3 µM
same,TGI,SR leukemia,35.5 µM
same,GI50,NCI-H226 lung,16.3 µM
same,TGI,NCI-H226 lung,32.1 µM
same,GI50,EKVX NSCLC,0.518 µM
same,TGI,EKVX NSCLC,18.7 µM
same,GI50,A549 NSCLC,6.37 µM
same,TGI,A549 NSCLC,31.8 µM
same,GI50,PC-3 prostate,9.22 µM
same,TGI,PC-3 prostate,28.2 µM
same,GI50,NCI/ADR-RES ovarian,5.37 µM
same,TGI,NCI/ADR-RES ovarian,49 µM
same,GI50,M14 melanoma,13.7 µM
same,TGI,M14 melanoma,27.5 µM
same,GI50,NCI-H522 lung,0.108 µM
same,TGI,NCI-H522 lung,14.4 µM
same,GI50,UACC-257 melanoma,18.8 µM
same,TGI,UACC-257 melanoma,34.1 µM
same,GI50,UO-31 renal,2.71 µM
same,TGI,UO-31 renal,20.3 µM
same,GI50,SW-620 colon,14.6 µM
same,TGI,SW-620 colon,31.5 µM
same,GI50,SF-539 CNS,15.1 µM
same,TGI,SF-539 CNS,29.5 µM
same,GI50,OVCAR-3 ovarian,4.08 µM
same,TGI,OVCAR-3 ovarian,18.4 µM
same,GI50,BT-549 breast,7.26 µM
same,TGI,BT-549 breast,20.9 µM
same,GI50,SF-268 CNS,10.6 µM
same,TGI,SF-268 CNS,28.3 µM
same,GI50,A498 renal,0.514 µM
same,TGI,A498 renal,14.1 µM
same,GI50,SNB-19 CNS,12.9 µM
same,TGI,SNB-19 CNS,31.2 µM
same,GI50,T-47D breast,1.5 µM
same,TGI,T-47D breast,23.7 µM
same,GI50,IGROV1 ovarian,0.634 µM
same,TGI,IGROV1 ovarian,15.1 µM
same,GI50,U251 CNS,11.2 µM
same,TGI,U251 CNS,26 µM
same,GI50,NCI-H23 lung,12.9 µM
same,TGI,NCI-H23 lung,38 µM
same,GI50,HT29 colon,9.91 µM
same,TGI,HT29 colon,30.2 µM
same,GI50,COLO 205 colon,7.69 µM
same,TGI,COLO 205 colon,22.4 µM
same,GI50,LOX IMVI melanoma,10.1 µM
same,TGI,LOX IMVI melanoma,23.9 µM
same,GI50,HCT-116 colon,6.5 µM
same,TGI,HCT-116 colon,19.5 µM
same,GI50,CCRF-CEM leukemia,12.5 µM
same,TGI,CCRF-CEM leukemia,56.2 µM
same,GI50,SK-MEL-28 melanoma,12.8 µM
same,TGI,SK-MEL-28 melanoma,27 µM
same,GI50,MCF7 breast,4.95 µM
same,TGI,MCF7 breast,20.3 µM
same,GI50,MOLT-4 leukemia,7.13 µM
same,TGI,MOLT-4 leukemia,33.3 µM
same,GI50,HOP-62 NSCLC,12.5 µM
same,TGI,HOP-62 NSCLC,27.4 µM
same,GI50,TK-10 renal,1.07 µM
same,TGI,TK-10 renal,16.4 µM
same,GI50,SK-OV-3 ovarian,0.0792 µM
same,TGI,SK-OV-3 ovarian,9.03 µM
same,GI50,HCT-15 colon,4.42 µM
same,TGI,HCT-15 colon,19.7 µM
same,GI50,SN12C renal,3.51 µM
same,TGI,SN12C renal,22.2 µM
same,GI50,KM12 colon,9.43 µM
same,TGI,KM12 colon,25.6 µM
same,GI50,SF-295 CNS,13.9 µM
same,TGI,SF-295 CNS,28.6 µM
same,GI50,MDA-MB-435,9.49 µM
same,TGI,MDA-MB-435,23.3 µM
same,GI50,OVCAR-8 ovarian,11.4 µM
same,TGI,OVCAR-8 ovarian,40.3 µM
same,GI50,786-0 renal,3.78 µM
same,TGI,786-0 renal,21.6 µM
same,GI50,ACHN renal,0.406 µM
same,TGI,ACHN renal,16.3 µM
same,GI50,HCC-2998 colon,15.6 µM
same,TGI,HCC-2998 colon,30.9 µM
same,GI50,SNB-75 CNS,5.63 µM
same,TGI,SNB-75 CNS,19 µM
same,GI50,RXF 393 renal,9.35 µM
same,TGI,RXF 393 renal,25.1 µM
